Results reported in patent US20070117743A1, “New antitumoral compounds” (priority 2003, published 2007).

Assays:
Assay type in all cases: cell-based, human
DU-145 = experiment: SRB colorimetric assay of cell growth and viability, DU-145; details: 48 hours exposure
IGROV-ET = experiment: SRB colorimetric assay of cell growth and viability, IGROV-ET; details: 48 hours exposure; for CC50: read-out: LC50 IGROV-ET
SK-BR-3 = experiment: SRB colorimetric assay of cell growth and viability, SK-BR-3; details: 48 hours exposure
HT-29 = experiment: SRB colorimetric assay of cell growth and viability, HT-29; details: 48 hours exposure; for GI50: read-out: GI50 HT-29; for CC50: read-out: LC50 HT-29
A-549 = experiment: SRB colorimetric assay of cell growth and viability, A-549; details: 48 hours exposure; for GI50: read-out: GI50 A-549; for CC50: read-out: LC50 A-549
SK-MEL-28 = experiment: SRB colorimetric assay of cell growth and viability, SK-MEL-28; details: 48 hours exposure; for CC50: read-out: LC50 MEL-28
HeLa = experiment: SRB colorimetric assay of cell growth and viability, HeLa; details: 48 hours exposure; for CC50: read-out: LC50 HELA
LoVo = experiment: SRB colorimetric assay of cell growth and viability, LoVo; details: 48 hours exposure; for CC50: read-out: LC50 LOVO
K-562 = experiment: SRB colorimetric assay of cell growth and viability, K-562; details: 48 hours exposure; for CC50: read-out: LC50 K-562
LNCaP = experiment: SRB colorimetric assay of cell growth and viability, LNCaP; details: 48 hours exposure; for GI50: read-out: GI50 LN-caP; for CC50: read-out: LC50 LN-caP
PANC-1 = experiment: SRB colorimetric assay of cell growth and viability, PANC-1; details: 48 hours exposure; for CC50: read-out: LC50 PANC-1
IGROV-1 = experiment: SRB colorimetric assay of cell growth and viability, IGROV-1; details: 48 hours exposure
LoVo-Dox = experiment: SRB colorimetric assay of cell growth and viability, LoVo-Dox; details: 48 hours exposure; for CC50: read-out: LC50 LOVO-DOX
Outline: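 After 48 hours continuous exposure to samples spanning 10 to 10^−8 μg/mL, biomass was quantified by sulforhodamine B staining of TCA-fixed cells (OD 490 nm). Cells, 5×10^3 per well in RPMI 1640 10% FBS, had attached 18 hours first; GI, TGI and LC derived from triplicate wells.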

HeLa-APL = experiment: SRB colorimetric assay of cell growth and viability, HeLa-APL; details: 48 hours exposure; for CC50: read-out: LC50 HELA-APL

C/C=C1\NC(=O)[C@H](Cc2ccccc2)NC(=O)[C@@H](C(C)C)NC(=O)[C@@H]([C@@H](C)CC)NC(=O)[C@H](NC(=O)[C@H](NC(=O)[C@H](CCCN)NC(=O)[C@H]2CCCN2C(=O)[C@H](NC(=O)[C@@H](NC(=O)[C@@H](NC(=O)[C@H](NC(=O)CC[C@H](C)CC)C(C)C)[C@@H](C)O)C(C)C)C(C)C)[C@@H](C)CC)[C@@H](C)OC(=O)[C@H](C(C)C)NC1=O [Compound 16, [(4R)-MeHex^14]-KF]
GI50 (DU-145): 1200 nM
LC50 (concentration causing 50% net cell kill) (DU-145): 3820 nM
TGI DU-145 (DU-145): 2.14E−06 Molar
GI50 (IGROV-ET): 805 nM
TGI IGROV-ET (IGROV-ET): 1.62E−06 Molar
CC50 (IGROV-ET): 3260 nM
GI50 (SK-BR-3): 1250 nM
LC50 (SK-BR-3): 3860 nM
TGI SK-BR-3 (SK-BR-3): 2.20E−06 Molar
TGI HT-29 (HT-29): 1.54E−06 Molar
GI50 (HT-29): 738 nM
CC50 (HT-29): 3220 nM
TGI A-549 (A-549): 2.26E−06 Molar
GI50 (A-549): 1200 nM
CC50 (A-549): 4240 nM
GI50 (SK-MEL-28): 1140 nM
TGI MEL-28 (SK-MEL-28): 2.09E−06 Molar
CC50 (SK-MEL-28): 3800 nM
GI50 (HeLa): 1050 nM
TGI HELA (HeLa): 1.93E−06 Molar
CC50 (HeLa): 3550 nM
GI50 (LoVo): 248 nM
TGI LOVO (LoVo): 7.78E−07 Molar
CC50 (LoVo): 2280 nM
GI50 (K-562): 3730 nM
TGI K-562 (K-562): 6.77E−06 Molar
CC50 (K-562): ≥ 6770 nM
TGI LN-caP (LNCaP): 2.46E−06 Molar
GI50 (LNCaP): 1500 nM
CC50 (LNCaP): 4040 nM
GI50 (PANC-1): 4700 nM
TGI PANC-1 (PANC-1): 4.24E−06 Molar
CC50 (PANC-1): 4240 nM
GI50 (IGROV-1): 941 nM
LC50 (concentration causing 50% net cell killing) (IGROV-1): 3500 nM
TGI IGROV (IGROV-1): 1.81E−06 Molar
GI50 (LoVo-Dox): 288 nM
TGI LOVO-DOX (LoVo-Dox): 7.71E−07 Molar
CC50 (LoVo-Dox): 2190 nM
GI50 (HeLa-APL): 1560 nM
TGI HELA-APL (HeLa-APL): 3.47E−06 Molar
CC50 (HeLa-APL): ≥ 6770 nM

C/C=C1\NC(=O)[C@H](Cc2ccccc2)NC(=O)[C@@H](C(C)C)NC(=O)[C@@H]([C@@H](C)CC)NC(=O)[C@H](NC(=O)[C@H](NC(=O)[C@H](CCCN)NC(=O)[C@H]2CCCN2C(=O)[C@H](NC(=O)[C@@H](NC(=O)[C@@H](NC(=O)[C@H](NC(=O)CCCCCCC)C(C)C)[C@@H](C)O)C(C)C)C(C)C)[C@@H](C)CC)[C@@H](C)OC(=O)[C@H](C(C)C)NC1=O [Compound 18, [Oct^14]-KF]
GI50 (DU-145): 149 nM
LC50 (concentration causing 50% net cell kill) (DU-145): 1470 nM
TGI DU-145 (DU-145): 6.70E−07 Molar
GI50 (IGROV-ET): 147 nM
TGI IGROV-ET (IGROV-ET): 3.02E−07 Molar
CC50 (IGROV-ET): 2010 nM
GI50 (SK-BR-3): 121 nM
LC50 (SK-BR-3): 536 nM
TGI SK-BR-3 (SK-BR-3): 3.02E−07 Molar
TGI HT-29 (HT-29): 3.22E−07 Molar
GI50 (HT-29): 201 nM
CC50 (HT-29): 536 nM
TGI A-549 (A-549): 2.82E−07 Molar
GI50 (A-549): 134 nM
CC50 (A-549): 1210 nM
GI50 (SK-MEL-28): 670 nM
TGI MEL-28 (SK-MEL-28): 1.14E−06 Molar
CC50 (SK-MEL-28): 1680 nM
GI50 (HeLa): 288 nM
TGI HELA (HeLa): 8.04E−07 Molar
CC50 (HeLa): 1680 nM
GI50 (LoVo): 188 nM
TGI LOVO (LoVo): 2.68E−07 Molar
CC50 (LoVo): 402 nM
GI50 (K-562): 2410 nM
CC50 (K-562): 4020 nM
TGI LN-caP (LNCaP): 1.34E−06 Molar
GI50 (LNCaP): 402 nM
CC50 (LNCaP): 3350 nM
GI50 (PANC-1): 2010 nM
TGI PANC-1 (PANC-1): 3.35E−06 Molar
CC50 (PANC-1): 6030 nM
GI50 (IGROV-1): 168 nM
LC50 (concentration causing 50% net cell killing) (IGROV-1): 1070 nM
TGI IGROV (IGROV-1): 3.02E−07 Molar
GI50 (LoVo-Dox): 107 nM
TGI LOVO-DOX (LoVo-Dox): 1.68E−07 Molar
CC50 (LoVo-Dox): 335 nM
GI50 (HeLa-APL): 536 nM
TGI HELA-APL (HeLa-APL): 1.07E−06 Molar
CC50 (HeLa-APL): 3350 nM

C/C=C1\NC(=O)[C@H](Cc2ccccc2)NC(=O)[C@@H](C(C)C)NC(=O)[C@@H]([C@@H](C)CC)NC(=O)[C@H](NC(=O)[C@H](NC(=O)[C@H](CCCN)NC(=O)[C@H]2CCCN2C(=O)[C@H](NC(=O)[C@@H](NC(=O)[C@@H](NC(=O)[C@H](NC(=O)C(F)(F)C(F)(F)C(F)(F)C(F)(F)C(F)(F)C(F)(F)F)C(C)C)[C@@H](C)O)C(C)C)C(C)C)[C@@H](C)CC)[C@@H](C)OC(=O)[C@H](C(C)C)NC1=O [Compound 26, [Pfh^14]-KF]
GI50 (DU-145): 596 nM
LC50 (concentration causing 50% net cell kill) (DU-145): 3350 nM
TGI DU-145 (DU-145): 1.41E−06 Molar
GI50 (IGROV-ET): 199 nM
TGI IGROV-ET (IGROV-ET): 5.14E−07 Molar
CC50 (IGROV-ET): 2040 nM
GI50 (SK-BR-3): 144 nM
LC50 (SK-BR-3): 2180 nM
TGI SK-BR-3 (SK-BR-3): 4.92E−07 Molar
TGI HT-29 (HT-29): 4.55E−07 Molar
GI50 (HT-29): 203 nM
CC50 (HT-29): 1890 nM
TGI A-549 (A-549): 1.48E−06 Molar
GI50 (A-549): 684 nM
CC50 (A-549): 3190 nM
GI50 (SK-MEL-28): 754 nM
TGI MEL-28 (SK-MEL-28): 1.50E−06 Molar
CC50 (SK-MEL-28): 2960 nM
GI50 (HeLa): 701 nM
TGI HELA (HeLa): 1.57E−06 Molar
CC50 (HeLa): 3510 nM
GI50 (LoVo): 654 nM
TGI LOVO (LoVo): 1.38E−06 Molar
CC50 (LoVo): 2990 nM
GI50 (K-562): 1330 nM
TGI K-562 (K-562): 2.33E−06 Molar
CC50 (K-562): 4070 nM
TGI LN-caP (LNCaP): 1.72E−06 Molar
GI50 (LNCaP): 900 nM
CC50 (LNCaP): 3280 nM
GI50 (PANC-1): 2010 nM
TGI PANC-1 (PANC-1): 5.50E−06 Molar
CC50 (PANC-1): 5840 nM
GI50 (IGROV-1): 648 nM
LC50 (concentration causing 50% net cell killing) (IGROV-1): 3360 nM
TGI IGROV (IGROV-1): 1.48E−06 Molar
GI50 (LoVo-Dox): 131 nM
TGI LOVO-DOX (LoVo-Dox): 2.52E−07 Molar
CC50 (LoVo-Dox): 484 nM
GI50 (HeLa-APL): 455 nM
TGI HELA-APL (HeLa-APL): 1.33E−06 Molar
CC50 (HeLa-APL): 3520 nM

C/C=C1\NC(=O)[C@H](Cc2ccccc2)NC(=O)[C@@H](C(C)C)NC(=O)[C@@H]([C@@H](C)CC)NC(=O)[C@H](NC(=O)[C@H](NC(=O)[C@H](CCCN)NC(=O)[C@H]2CCCN2C(=O)[C@H](NC(=O)[C@@H](NC(=O)[C@@H](NC(=O)[C@H](NC(=O)CCCCC(C)=O)C(C)C)[C@@H](C)O)C(C)C)C(C)C)[C@@H](C)CC)[C@@H](C)OC(=O)[C@H](C(C)C)NC1=O [Compound 27, [6-OHep^14]-KF]
GI50 (DU-145): 6700 nM
LC50 (concentration causing 50% net cell kill) (DU-145): 6700 nM
TGI DU-145 (DU-145): 6.70E−06 Molar
GI50 (IGROV-ET): 6700 nM
TGI IGROV-ET (IGROV-ET): 6.70E−06 Molar
CC50 (IGROV-ET): 6700 nM
GI50 (SK-BR-3): 3160 nM
LC50 (SK-BR-3): 6700 nM
TGI SK-BR-3 (SK-BR-3): 6.70E−06 Molar
TGI HT-29 (HT-29): 6.70E−06 Molar
GI50 (HT-29): 6700 nM
CC50 (HT-29): 6700 nM
TGI A-549 (A-549): 6.70E−06 Molar
GI50 (A-549): 6700 nM
CC50 (A-549): 6700 nM
GI50 (SK-MEL-28): 6700 nM
TGI MEL-28 (SK-MEL-28): 6.70E−06 Molar
CC50 (SK-MEL-28): 6700 nM
GI50 (HeLa): 6700 nM
TGI HELA (HeLa): 6.70E−06 Molar
CC50 (HeLa): 6700 nM
GI50 (LoVo): 3500 nM
TGI LOVO (LoVo): 6.70E−06 Molar
CC50 (LoVo): 6700 nM
GI50 (K-562): 6700 nM
TGI K-562 (K-562): 6.70E−06 Molar
CC50 (K-562): 6700 nM
TGI LN-caP (LNCaP): 6.70E−06 Molar
GI50 (LNCaP): 6700 nM
CC50 (LNCaP): 6700 nM
GI50 (PANC-1): 6700 nM
TGI PANC-1 (PANC-1): 6.70E−06 Molar
CC50 (PANC-1): 6700 nM
GI50 (IGROV-1): 6700 nM
LC50 (concentration causing 50% net cell killing) (IGROV-1): 6700 nM
TGI IGROV (IGROV-1): 6.70E−06 Molar
GI50 (LoVo-Dox): 2140 nM
TGI LOVO-DOX (LoVo-Dox): 6.70E−06 Molar
CC50 (LoVo-Dox): 6700 nM
GI50 (HeLa-APL): 6700 nM
TGI HELA-APL (HeLa-APL): 6.70E−06 Molar
CC50 (HeLa-APL): 6700 nM
